Measurements reported in US12655116B2, “Substituted isophthalic acid diamides” (Bayer Aktiengesellschaft, priority 2020, dated 2026).

Legend:
ALOMY [1] = assay: Pre-emergence herbicidal action against ALOMY; format: in vivo, Alopecurus myosuroides; details: 80 g/ha, pre-emergence, scored visually after 3 weeks vs untreated controls (100% = plants have died, 0% = like control plants)
Summary of the method: (§1)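 Visual rating at 3 weeks vs untreated pots; 0–100% scale, 100% = plants died. Treatment: aqueous WP/EC spray onto covering soil, 600–800 l/ha, 0.2% wetter, seeds in sandy loam.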

SETVI [2] = assay: Pre-emergence herbicidal action against SETVI; format: in vivo, Setaria viridis; details: dosage 80 g/ha
Summary of the method: as §1

PHBPU [3] = assay: Pre-emergence herbicidal action against PHBPU; format: in vivo, Pharbitis purpurea; details: dosage 80 g/ha
Summary of the method: as §1

ABUTH [4] = assay: Pre-emergence herbicidal action against ABUTH; format: in vivo, Abutilon theophrasti
Summary of the method: as §1

VIOTR [5] = assay: Post-emergence herbicidal action against VIOTR; format: in vivo, Viola tricolor
Summary of the method: (§2)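 Weeds in sandy loam soil received a post-emergence spray at the one-leaf stage. Compounds were applied as WP or EC in water, 600 to 800 l/ha, with 0.2% wetting agent. Activity in % was judged visually after roughly 3 weeks against untreated plants.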

ALOMY [6] = assay: Post-emergence herbicidal action against ALOMY; format: in vivo, Alopecurus myosuroides; details: dosage 20 g/ha, visual assessment about 3 weeks after treatment vs untreated controls
Summary of the method: as §2

ECHCG [7] = assay: Pre-emergence herbicidal action against ECHCG; format: in vivo, Echinochloa crus-galli
Summary of the method: as §1

DIGSA [8] = assay: Pre-emergence herbicidal action against DIGSA; format: in vivo, Digitaria sanguinalis
Summary of the method: as §1

VIOTR [9] = assay: Pre-emergence herbicidal action against VIOTR; format: in vivo, Viola tricolor
Summary of the method: as §1

AVEFA [10] = assay: Pre-emergence herbicidal action against AVEFA; format: in vivo, Avena fatua; details: 80 g/ha, pre-emergence
Summary of the method: as §1

MATIN [11] = assay: Pre-emergence herbicidal action against MATIN; format: in vivo, Matricaria inodora
Summary of the method: as §1

AVEFA [12] = assay: Post-emergence herbicidal action against AVEFA; format: in vivo, Avena fatua; details: visual assessment about 3 weeks after treatment, 100% = plants have died, 0% = like control plants
Summary of the method: as §2

VERPE = assay: Post-emergence herbicidal action against VERPE; format: in vivo, Veronica persica; details: 20 g/ha
Summary of the method: as §2

HORMU [13] = assay: Post-emergence herbicidal action against HORMU; format: in vivo, Hordeum murinum; details: dosage 20 g/ha
Summary of the method: as §2

ECHCG [14] = assay: Post-emergence herbicidal action against ECHCG; format: in vivo, Echinochloa crus-galli
Summary of the method: as §2

HORMU [15] = assay: Pre-emergence herbicidal action against HORMU; format: in vivo, Hordeum murinum; details: 80 g/ha, pre-emergence
Summary of the method: as §1

AMARE [16] = assay: Post-emergence herbicidal action against AMARE; format: in vivo, Amaranthus retroflexus; details: 20 g/ha, visual assessment about 3 weeks after treatment, 100% = plants have died, 0% = like control plants
Summary of the method: as §2

ABUTH [17] = assay: Post-emergence herbicidal action against ABUTH; format: in vivo, Abutilon theophrasti; details: visual assessment about 3 weeks after treatment vs untreated controls
Summary of the method: as §2

STEME [18] = assay: Post-emergence herbicidal action against STEME; format: in vivo, Stellaria media
Summary of the method: as §2

LOLRI = assay: Pre-emergence herbicidal action against LOLRI; format: in vivo, Lolium rigidum; details: 80 g/ha
Summary of the method: as §1

DIGSA [19] = assay: Post-emergence herbicidal action against DIGSA; format: in vivo, Digitaria sanguinalis; details: for Post-emergence action against DIGSA: 20 g/ha
Summary of the method: as §2

PHBPU [20] = assay: Post-emergence herbicidal action against PHBPU; format: in vivo, Pharbitis purpurea
Summary of the method: as §2

AMARE [21] = assay: Pre-emergence herbicidal action against AMARE; format: in vivo, Amaranthus retroflexus
Summary of the method: as §1

SETVI [22] = assay: Post-emergence herbicidal action against SETVI; format: in vivo, Setaria viridis
Summary of the method: as §2

POLCO [23] = assay: Pre-emergence herbicidal action against POLCO; format: in vivo, Polygonum convolvulus; details: dosage 80 g/ha
Summary of the method: as §1

MATIN [24] = assay: Post-emergence herbicidal action against MATIN; format: in vivo, Matricaria inodora
Summary of the method: as §2

STEME [25] = assay: Pre-emergence herbicidal action against STEME; format: in vivo, Stellaria media
Summary of the method: as §1

POLCO [26] = assay: Post-emergence herbicidal action against POLCO; format: in vivo, Polygonum convolvulus; details: dosage 20 g/ha
Description: Seeds of monocotyledonous and dicotyledonous weed and crop plants are laid out in sandy loam soil in wood-fiber pots, covered with soil and cultivated in a greenhouse under good growth conditions. 2 to 3 weeks after sowing, the test plants are treated at the one-leaf stage. The compounds of the invention, formulated in the form of wettable powders (WP) or as emulsion concentrates (EC), are then sprayed onto the green parts of the plants in the form of an aqueous suspension or emulsion at a water application rate equivalent to 600 to 800 l/ha, with addition of 0.2% wetting agent. After the test plants have been left to stand in the greenhouse under optimal growth conditions for about 3 weeks, the action of the preparations is assessed visually in comparison to untreated controls (herbicidal action in percent (%): 100% activity=the plants have died, 0% activity=like control plants). […] The tables below illustrate, in an illustrative manner, the post-emergence herbicidal action of the compounds of the invention, the herbicidal activity being stated in percent.

[27] = 80 g/ha, scored visually after 3 weeks vs untreated controls (100% = plants have died, 0% = like control plants)

With CCNC(=O)c1c(C(F)(F)F)ccc(C(=O)Nc2nnco2)c1Cl [Example 5-117] the “Pre-emergence action against ALOMY (herbicidal activity)” value (ALOMY [1]) was 90%, the “Pre-emergence action against SETVI in %” value (SETVI [2]) was 90% and the “Pre-emergence action against PHBPU in %” value (PHBPU [3]) was 100%. For the same compound, the “Pre-emergence action against ABUTH (herbicidal activity)” value (ABUTH [4]; [27]) was 100%, the “Pre-emergence action against ABUTH (herbicidal activity in percent)” value (ABUTH [4]; dosage 20 g/ha, scored visually after 3 weeks vs untreated controls, 100% = plants have died, 0% = like control plants) was 100% and the “Post-emergence action against VIOTR in %” value (VIOTR [5]; 5 g/ha) was 90%. The “Post-emergence action against VIOTR in %” value (VIOTR [5]; 20 g/ha) was 100%, the “Post-emergence action against ALOMY in %” value (ALOMY [6]) was 80% and the “Pre-emergence action against ECHCG in %” value (ECHCG [7]; 20 g/ha) was 80%. For the same compound, the “Pre-emergence action against ECHCG in %” value (ECHCG [7]; 80 g/ha) was 100%, the “Pre-emergence action against DIGSA in %” value (DIGSA [8]; dosage 20 g/ha) was 100% and the “Pre-emergence action against DIGSA in %” value (DIGSA [8]; dosage 80 g/ha) was 100%. The “Pre-emergence action against VIOTR in %” value (VIOTR [9]; dosage 20 g/ha) was 100%, the “Pre-emergence action against VIOTR in %” value (VIOTR [9]; dosage 80 g/ha) was 100% and the “Pre-emergence action against AVEFA in %” value (AVEFA [10]) was 90%. For the same compound, the “Pre-emergence action against MATIN in %” value (MATIN [11]; dosage 20 g/ha) was 90%, the “Pre-emergence action against MATIN in %” value (MATIN [11]; dosage 80 g/ha) was 100% and the “Post-emergence action at 5 g/ha against AVEFA in %” value (AVEFA [12]; 5 g/ha) was 80%. The “Post-emergence action at 20 g/ha against AVEFA in %” value (AVEFA [12]; 20 g/ha) was 90%, the “Post-emergence action against VERPE in %” value (VERPE) was 80% and the “Post-emergence action against HORMU in %” value (HORMU [13]) was 80%. The “Post-emergence action against ECHCG in %” value (ECHCG [14]; dosage 5 g/ha) was 80%, the “Post-emergence action against ECHCG in %” value (ECHCG [14]; dosage 20 g/ha) was 80% and the “Pre-emergence action against HORMU in %” value (HORMU [15]) was 80%. The “Post-emergence action at 20 g/ha against AMARE in %” value (AMARE [16]) was 100%, the “Post-emergence action against ABUTH in %” value (ABUTH [17]; dosage 5 g/ha) was 80% and the “Post-emergence action against ABUTH in %” value (ABUTH [17]; dosage 20 g/ha) was 90%. For the same compound, the “Post-emergence action against STEME in %” value (STEME [18]; 20 g/ha) was 100%, the “Post-emergence action against STEME in %” value (STEME [18]; dosage 5 g/ha) was 100% and the “Pre-emergence action against LOLRI in %” value (LOLRI) was 80%. For the same compound, the “Post-emergence action against DIGSA in %” value (DIGSA [19]; 5 g/ha) was 90%, the “Post-emergence action against DIGSA” value (DIGSA [19]) was 90% and the “Post-emergence action against PHBPU in %” value (PHBPU [20]; dosage 5 g/ha) was 80%. For the same compound, the “Post-emergence action against PHBPU in %” value (PHBPU [20]; dosage 20 g/ha) was 90%, the “Pre-emergence action against AMARE in %” value (AMARE [21]; 20 g/ha, scored visually after 3 weeks vs untreated controls, 100% = plants have died, 0% = like control plants) was 90% and the “Pre-emergence action against AMARE in %” value (AMARE [21]; [27]) was 90%. The “Post-emergence action against SETVI in %” value (SETVI [22]; dosage 5 g/ha) was 100%, the “Post-emergence action against SETVI in %” value (SETVI [22]; dosage 20 g/ha) was 100% and the “Pre-emergence action against POLCO in %” value (POLCO [23]) was 80%. For the same compound, the “Post-emergence action against MATIN in %” value (MATIN [24]; dosage 5 g/ha) was 80%, the “Post-emergence action against MATIN in %” value (MATIN [24]; dosage 20 g/ha) was 90% and the “Pre-emergence action against STEME in %” value (STEME [25]; dosage 20 g/ha) was 90%. For the same compound, the “Pre-emergence action against STEME in %” value (STEME [25]; dosage 80 g/ha) was 90%.

In the case of CCNC(=O)c1c(Br)ccc(C(=O)Nc2nnc(C)o2)c1Cl [Example 6-141], the “Pre-emergence action against ALOMY (herbicidal activity)” value (ALOMY [1]) is reported as 90%, the “Post-emergence action against POLCO in %” value (POLCO [26]) is reported as 80% and the “Post-emergence action against VIOTR in %” value (VIOTR [5]; 20 g/ha) is reported as 80%. For the same compound, the “Post-emergence action against ALOMY in %” value (ALOMY [6]) was 90%, the “Pre-emergence action against ECHCG in %” value (ECHCG [7]; 80 g/ha) was 90% and the “Pre-emergence action against DIGSA in %” value (DIGSA [8]; dosage 20 g/ha) was 90%. The “Pre-emergence action against DIGSA in %” value (DIGSA [8]; dosage 80 g/ha) was 100%, the “Pre-emergence action against AVEFA in %” value (AVEFA [10]) was 80% and the “Pre-emergence action against MATIN in %” value (MATIN [11]; dosage 80 g/ha) was 80%. The “Post-emergence action against ECHCG in %” value (ECHCG [14]; dosage 20 g/ha) was 80%, the “Post-emergence action at 20 g/ha against AMARE in %” value (AMARE [16]) was 100% and the “Post-emergence action against ABUTH in %” value (ABUTH [17]; dosage 20 g/ha) was 80%. For the same compound, the “Post-emergence action against DIGSA” value (DIGSA [19]) was 80% and the “Pre-emergence action against AMARE in %” value (AMARE [21]; [27]) was 100%.
